Where only a bound is given, the exact number is not on record here.

Assay [1] relates to KRAS G12C mutant human non-small cell lung cancer cells NCI-H358. The assay is described as follows: 3D cell proliferation inhibition assay, NCI-H358. It is filed as cell-based. Particulars: NCI-H358, 168 h, 7 days, CTG. From the text: (§1) Test Example 4: 3D Cell Proliferation Inhibition Assay
(§2) The inhibitory effect of the compounds on the proliferation of 3D cells was investigated on KRAS G12C mutant human non-small cell lung cancer cells NCI-H358 (ATCC or Stem Cell Bank, Chinese Academy of Sciences), KRAS G12D mutant human metastatic pancreatic adenocarcinoma cells AsPC-1 (ATCC), KRAS G12V mutant human lung adenocarcinoma cells NCI-H441 (ATCC), and KRAS G13D mutant human colorectal adenocarcinoma epithelial cells DLD-1 (ATCC). The specific procedures were as follows:
(§3) 200 nL of compound solution diluted in a gradient was added to corresponding microwells of a 384-well low-adsorption microwell plate (Corning, 3657) using an Echo sonic pipetting system (Labcyte, Echo 550), so that the final concentration of the test compound in the reaction system was in a range of 20000 nM-0.008 nM. Then 40 μL of cells at a certain density were added to the corresponding microplate. In addition to test wells for the test compounds, both a DMSO control well and a medium control well were set, with the DMSO control well containing DMSO and cells and the medium well containing only medium. […] The plate was incubated at room temperature for 30 min and read on a microplate reader EnVision using the chemiluminescence program. […]

For another assay, the target named is T1, KRAS-G12C/SOS1 (Homo sapiens, UniProt Q07889).
T1 construct: purchased Cisbio 63ADK000CB16PEG
T1 sequence (Q07889 1-1333): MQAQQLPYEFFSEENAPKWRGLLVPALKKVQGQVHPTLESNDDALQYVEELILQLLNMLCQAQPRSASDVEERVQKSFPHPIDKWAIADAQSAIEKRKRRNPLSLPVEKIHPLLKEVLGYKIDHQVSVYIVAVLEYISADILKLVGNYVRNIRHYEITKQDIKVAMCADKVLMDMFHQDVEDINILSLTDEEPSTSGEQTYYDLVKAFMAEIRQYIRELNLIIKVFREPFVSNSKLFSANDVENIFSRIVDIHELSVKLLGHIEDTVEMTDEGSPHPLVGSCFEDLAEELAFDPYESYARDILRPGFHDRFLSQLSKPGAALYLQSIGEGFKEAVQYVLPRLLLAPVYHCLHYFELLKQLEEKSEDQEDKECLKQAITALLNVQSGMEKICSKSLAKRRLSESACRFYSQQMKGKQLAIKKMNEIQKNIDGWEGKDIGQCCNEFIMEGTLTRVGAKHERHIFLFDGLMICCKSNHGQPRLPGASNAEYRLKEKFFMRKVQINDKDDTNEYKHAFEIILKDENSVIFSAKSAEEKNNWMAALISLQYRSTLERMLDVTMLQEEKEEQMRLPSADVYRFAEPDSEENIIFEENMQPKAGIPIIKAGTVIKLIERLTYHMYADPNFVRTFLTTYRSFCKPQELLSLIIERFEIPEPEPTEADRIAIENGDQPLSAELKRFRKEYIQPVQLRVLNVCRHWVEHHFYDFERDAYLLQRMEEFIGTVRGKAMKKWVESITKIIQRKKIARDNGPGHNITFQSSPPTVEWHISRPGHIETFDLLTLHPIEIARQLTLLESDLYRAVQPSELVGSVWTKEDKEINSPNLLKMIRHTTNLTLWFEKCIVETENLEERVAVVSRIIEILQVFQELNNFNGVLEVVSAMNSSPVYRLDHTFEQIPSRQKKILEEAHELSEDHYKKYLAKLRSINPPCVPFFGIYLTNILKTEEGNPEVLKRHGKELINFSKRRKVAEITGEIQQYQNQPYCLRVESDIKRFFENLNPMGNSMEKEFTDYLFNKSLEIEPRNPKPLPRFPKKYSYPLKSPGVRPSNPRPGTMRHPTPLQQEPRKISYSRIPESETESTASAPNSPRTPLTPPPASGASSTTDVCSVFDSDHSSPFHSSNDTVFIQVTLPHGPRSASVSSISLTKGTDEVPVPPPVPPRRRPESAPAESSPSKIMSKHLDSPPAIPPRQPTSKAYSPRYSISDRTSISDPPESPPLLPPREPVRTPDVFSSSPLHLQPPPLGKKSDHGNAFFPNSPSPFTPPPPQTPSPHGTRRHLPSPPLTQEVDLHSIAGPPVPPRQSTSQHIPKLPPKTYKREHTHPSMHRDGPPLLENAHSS
Description: KRAS-G12C/SOS1 binding assay (HTRF). The note with it: inhibition of KRAS-G12C/SOS1 binding. On the procedure: Test Example 1: KRAS-G12C/SOS1 Binding Assay
The following method was used to determine the extent of inhibition of KRAS-G12C/SOS1 binding by the preferred compounds of the present invention under in vitro conditions. In this method, the competitive inhibition of KRAS-G12C/SOS1 binding by the preferred compounds was assayed by the homogeneous time-resolved fluorescence (HTRF) technology using the KRAS-G12C/SOS1 binding assay kit (Cisbio, 63ADK000CB16PEG).
The experimental procedures were as follows (refer to the kit instructions for details): the compounds of the present invention were each firstly dissolved in DMSO at a concentration of 20 mM, and then diluted in an equal gradient with a buffer in the kit, so that the final concentrations of the test compounds in the reaction system were in a range of 10000 nM-0.04 nM, and the final concentration of DMSO was 0.5%. 2 μL of the compounds were each incubated with 4 μL of 1×Tag1-SOS1, 4 μL of 1×Tag2-KRAS-G12C (containing 10 μM guanosine triphosphate, GTP) at 25° C. for 15 min. Then 5 μL of 1×Anti-Tag1-Tb3+ and 5 μL of 1×Anti-Tag2-XL665 were added to the reaction system, and the mixture was incubated on ice for 3 h. After the incubation, the fluorescence intensity of each well was measured at the excitation wavelength of 337 nm, the fluorescence intensity of each well was read at the emission wavelengths of 620 nm and 665 nm on a microplate reader EnVision (PerkinElmer, 2105) in an HTRF mode, and the Ratio value was calculated by the formula Ratio=(665 nm/620 nm)×[…]. The inhibition rates of the compounds at each concentration were calculated by comparing the fluorescence intensity ratio with that of the control group, and then nonlinear curve fitting was performed by GraphPad Prism 8 in the logarithmic concentration-inhibition rate to obtain the IC50 values of the compounds, as shown in Table 1.

The subject of assay [2] is KRAS G13D mutant human colorectal adenocarcinoma epithelial cells DLD-1. Description: 3D cell proliferation inhibition assay, DLD-1. It counts as cell-based. Particulars: DLD-1, 168 h, 7 days, CTG.
Text: as §1, §2, §3

`COc1cc2nc(C)nc(N[C@H](C)c3cc(-c4c(Cl)cccc4CN(C)C)cs3)c2cc1[C@H]1CC[C@H](C(=O)N2CCN(CC3CCC4(CC3)CCN(C(=O)c3ccc(Cl)c(N5CCC(=O)NC5=O)c3)CC4)CC2)CC1` [Example 1, 1-(2-chloro-5-(9-((4-((1R,4R)-4-(4-(((R)-1-(4-(2-chloro-6-((dimethylamino)methyl)phenyl)thien-2-yl)ethyl)amino)-7-methoxy-2-methylquinazolin-6-yl)cyclohexane-1-carbonyl)piperazin-1-yl)methyl)-3-azaspiro[5.5]undecane-3-carbonyl)phenyl)dihydropyrimidine-2,4(1H,3H)-dione]: the IC50 was no more than 15 nM in assay [1], no more than 15 nM on KRAS-G12C/SOS1 and 30 to 50 nM in assay [2].
As to `COc1cc2nc(C)nc(N[C@H](C)c3cc(-c4c(Cl)cccc4CN(C)C)cs3)c2cc1[C@H]1CC[C@H](C(=O)N2CCC(CCOCC3CCN(C(=O)c4ccc(Cl)c(N5CCC(=O)NC5=O)c4)CC3)CC2)CC1` [Example 5, 1-(2-chloro-5-(4-((2-(1-((1R,4R)-4-(4-(((R)-1-(4-(2-chloro-6-((dimethylamino)methyl)phenyl)thien-2-yl)ethyl)amino)-7-methoxy-2-methylquinazolin-6-yl)cyclohexane-1-carbonyl)piperidin-4-yl)ethoxy)methyl)piperidine-1-carbonyl)phenyl)dihydropyrimidine-2,4(1H,3H)-dione], the 50% inhibitory concentration (IC50) is no more than 15 nM in assay [1], no more than 15 nM at KRAS-G12C/SOS1 and 50 to 100 nM in assay [2].

The record behind these values is patent US20240261418A1, “SOS1 DEGRADING AGENT AND PREPARATION METHOD THEREFOR AND APPLICATION THEREOF” (SHANGHAI LEADINGTAC PHARMACEUTICAL CO. LTD., priority 2021, published 2024).
